In US20060046972A1, “Cytotoxic nucleoside analog compound 003 for treating cancer” (Parker Hughes Institute, priority 2004, published 2006):

Columns and labels:
[1] = system: MMTV/Neu transgenic mice (spontaneous breast cancer); assay: Murine model of Her2 positive breast cancer, virgin MMTV/Neu transgenic mice; format: in vivo
Source text: Overexpression of the wild type Neu in the mammary glands of transgenic mice induces metastatic breast cancer. Accordingly, in the MMTV/Neu transgenic strain, the wild-type neu is overexpressed in the mammary gland under the control of the MMTV long terminal repeat. This animal model has been used to analyze the Her2/neu overexpression in breast epithelia, as well as the efficacy of new therapeutic approaches to prevent or treat Her2/neu overexpressing malignancies.
MMTV/Neu transgenic mice were treated with Compound 003 that was added to the daily food of the mice at an average daily dose level of 50 mg/kg/day for the duration of the experiment. Mice were screened for the tumor formation every other day. Tumor-free survival was analyzed using life table statistics as previously reported. The protective anti-cancer activity of Compound 003 was evaluated according to the rise of the survival rate and prolongation of the tumor-free survival of the experimental animals as compared with the control animals. Statistical Significance was determined using the Kaplan Meier Log-Rank test.
Neu transgenic mice were mated to FVB non-transgenic mice, and heterozygous neu transgenic offspring were identified by PCR analysis. A total of 62 female neu transgenic mice were identified from the offspring. These transgenic mice were used to examine the effects of a nontoxic dose level of Compound 003 (50 mg/kg/day) on spontaneous breast cancer development in two independent experiments.
In the first experiment, 30 virgin transgenic mice were used. Treatments were initiated when female mice were 6 weeks of age. Fifteen of the 15 vehicle treated control transgenic mice developed breast cancer with a median cancer-free survival time of 224 days (Mean=253±23 days) (FIG. 7, FIG. 8A&B). At 340 days, only 20% of the mice were tumor-free and by 480 days all had developed breast cancer. The mammary gland tumors were excised, paraffin-embedded and sectioned for H+E staining. A representative tumor section from a neu transgenic mouse is shown in panel C of FIG. 8. […]

[2] = Pharmacokinetics in CD-1 mice after intravenous or oral Compound 003; format: in vivo
Method: Each plasma sample (200 μL) was mixed 1:4 with acetone (800 μL) and vortexed for at least 30 seconds. Following centrifugation, the supernatant was transferred into a clean tube and dried under nitrogen. A 50 μL solution of 50% methanol in 200 mM HCl was used to reconstitute the extraction residue, and 35 μL was subjected to analytical HPLC. The analytical column used was a 250×4 mm Lichrospher 100, RP-18 (5 μm) and the guard column was a 4×4 mm Lichrospher 100, RP-18 (5 μm). The mobile phase was degassed automatically by the electronic degasser system. The column was equilibrated and eluted under gradient conditions utilizing a flow rate of 1.0 ml/min at ambient temperature. The linear gradient mobile phase was: 0 minute, 100% 10 mM ammonium phosphate buffer (pH 3.7); 20 minutes, 20% acetonitrile, 80% ammonium phosphate buffer (pH 3.7); 20.1-50 minutes, 28% acetonitrile, 72% water (0.1% HAC). The wavelength of detection was set at 270 nm. Peak width, response time and slit werep, set at >0.03 minutes, 0.5 s and 8 nm, respectively.
Female CD-1 mice (6-8 weeks old) (Charles River, Wilmington, Mass.) were housed in a USDA-accredited animal care facility under standard environmental conditions (12-h light/12-h dark photoperiod, 22±1° C., 60±10% relative humidity). All rodents were housed in microisolator cages (Lab Products, Inc., N.J.) containing autoclaved bedding. Mice were allowed free access to autoclaved pellet food and tap water throughout the study. All animal studies are approved by the Parker Hughes Institute Animal Care and Use Committee, and all animal care procedures conformed to the principles outlined in the Guide for the Care and Use of Laboratory Animals (National Research Council;. National Academy Press, Washington D.C. 1996).
Compound 003 (200 mg/kg) dissolved in DMSO was administered intravenously via tail vein to non-fasted mice or orally via gavage to 12-h fasted mice. Four to six mice per time-point were used for pharmacokinetic studies. Blood samples (˜500 μL) were obtained from the ocular venous plexus by retro-orbital venipuncture at 0, 5, 10, 15, 30, 45 minutes, and 1 h, 1.5 h, 2 h, 4 h, 6 h and 8 h after oral administration. All collected blood-samples were heparinized and centrifuged at 7000×g for 5 minutes to separate the plasma fraction from the whole blood. The plasma samples were then processed immediately using the extraction procedure described above.
Pharmacokinetic modeling and parameter calculations were carried out using the WinNonlin Professional Version 3.0 (Pharsight, Inc., Mountain, Calif.) pharmacokinetics software (Chen, C. L., et al., (1999) Pharm Res. 16:117; Chen, C. L., et al., (1999) Pharm Res. 16:1003; Uckun, F. M., et al., (1999) Clin Cancer Res. 5:2954). An appropriate model was chosen on the basis of the lowest sum of weighted squared residuals, the lowest Schwartz Criterion (SC), the lowest Akaike's Information Criterion (AIC) value, the lowest standard errors of the fitted parameters, and the dispersion of the residuals. The elimination half-life was estimated by linear regression analysis of the terminal phase of the plasma concentration-time profile. The systemic clearance (CL) was determined by dividing the dose by the AUC.

## COC(=O)C(C)NP(=O)(OCC1OC(n2cc(C)c(=O)[nH]c2=O)CC1N=[N+]=[N-])Oc1ccc(OC)cc1 (centres unmarked) [Compound 003, 3′-azidothymidine 5′-[p-methoxyphenylmethoxyalaninyl phosphate]]
[1]; 50 mg/kg/day in food, vehicle 224 days, P=0.0007
  median cancer-free survival: 455 days
[1]; 50 mg/kg/day, at 340 days, vehicle 20±10%
  proportion of mice cancer-free: 93±7%
[1]; 50 mg/kg/day, at 480 days, when all vehicle mice had breast cancer
  proportion of mice still cancer-free: one third
[2]; i.v. injection of 200 mg/kg
  in vivo transformation of parent compound: immediately transformed to Ala-AZT-MP and AZT
[2]; oral 200 mg/kg, below the detection limit
  plasma concentration of parent compound: < 500 nM
